Test results reported in patent US20180353613A1, “ANIONIC NANOPARTICLES FOR USE IN THE DELIVERY OF ANIONIC SMALL MOLECULE DRUGS” (B.G. NEGEV TECHNOLOGIES AND APPLICATIONS LTD, priority 2015, published 2018).
≈ marks a conversion by molar mass, not a printed value.

Columns and labels:
[1] = tested on: CT26 mouse colon carcinoma cells; assay: In vitro cytotoxicity of MTX complexes, PrestoBlue cell viability assay; format: cell-based; conditions: CT26, 48 h incubation
Description: CT26 mouse colon carcinoma cells or MDA-MB-231 human breast cancer cell line were seeded in 48-well plates at a density of 10,000 cells per well. After 24 h, medium was replaced with medium containing MTX nano-complexes or free MTX at various concentrations. After 48 h incubation, cell viability was assessed using PrestoBlue cell viability assay (Life Technologies, Carlsbad, Calif.). The assay is based on the live cell's ability to reduce resazurin (non-fluorescent) to resorufin (fluorescent). PrestoBlue working solution was prepared by dilution of PrestoBlue reagent 1:10 in cell culture medium. PrestoBlue working solution was added to the cells for 1 h at 37° C. and 5% CO2. Fluorescent intensity was measured using the Synergy Mx microplate reader (Biotek, Winooski, Vt.) at an excitation wavelength of 560 nm and emission wavelength of 590 nm. The percentage of cell viability was obtained after normalizing the data to untreated cells.
Statistical analysis was performed with GraphPad Prism version 6.05 for Windows (GraphPad Software, San Diego, Calif.). All variables are expressed as mean±SEM. […] Differences between experimental groups as a function of drug concentration were evaluated by 2-way ANOVA, with Sidak's multiple comparisons test. […]

[2] = tested on: MDA-MB-231 human breast cancer cell line; assay: In vitro cytotoxicity of DOX NPs, PrestoBlue cell viability assay; format: cell-based; conditions: MDA-MB-231, 48 h
Description: MDA-MB-231 or DOX-resistant human ovary carcinoma cell line NAR cells were seeded in 48-well plates at a density of 10,000 cells per well. After 24 h, medium was replaced with medium containing DOX NPs or free DOX at various concentrations. After incubation for 4 h, the medium was replaced to drug-free culture medium. After 48 h incubation, cell viability was assessed using PrestoBlue cell viability assay, as described above.
Statistical analysis was performed with GraphPad Prism version 6.05 for Windows (GraphPad Software, San Diego, Calif.). All variables are expressed as mean±SEM. To test the hypothesis that changes in DLS and potential measurements varied over time among the experimental groups, a general linear 2-way repeated-measures (RM) ANOVA model was used. The model included the effects of treatment, time, and treatment-by-time interaction, with Sidak's multiple comparisons test. Viability data was fit using 4-parametric logistic regression curve, where applicable. IC50 values obtained from the intersection of regression line with 50% response. Differences between experimental groups as a function of drug concentration were evaluated by 2-way ANOVA, with Sidak's multiple comparisons test. P<0.05 was considered statistically significant.

[3] = tested on: MDA-MB-231 cells; assay: Cellular uptake of DOX by ImageStreamX imaging flow cytometry; format: cell-based, human; conditions: 5.8 μg/ml DOX
Description: (§1) Imaging experiments using an imaging flow cytometer (Amnis ImageStreamX, ISX) were performed to quantitatively evaluate the cellular uptake of DOX. Cells were seeded in 6-well culture plates at a cell density of 300,000 cells per well. Twenty-four hours post-seeding, the cells were incubated for 4 h with Free DOX or AlgS-Ca^2+-DOX anionic NPs (5.8 μg/ml DOX, 5 mM Ca^2+, 0.5 μg/ml AlgS), and then medium was replaced to fresh medium for 24 h. For ISX analysis, the cells were harvested (at 4 or 24 h after DOX NP addition) by trypsinization followed by centrifugation at 300 g for 5 min. The cell pellet was resuspended in FACS buffer (PBS containing 2% FBS, v/v) and cells were analyzed using ImageStreamX Mark II (Amnis, Seattle, Wash.). Cell acquisition and analysis were performed using IDEAS Application, version 6.0.

[4] = tested on: NAR cells; assay: as above; format: cell-based, human; conditions: 5.8 μg/ml DOX
Description: as §1

[5] = tested on: MDA-MB-231 cells; assay: In vivo antitumor activity in MDA-MB-231 tumor-bearing athymic nude mice; conditions: 4 mg/kg i.v., three weekly injections
Description: Female athymic nude mice (six weeks old, body weight=20-23 g) are inoculated to the right cranial trunk region with MDA-MB-231 cells/Matrigel™ 1:1 (v/v) suspension (3×10^6 cells/0.2 mL/animal). Treatment is commenced when tumor size is approximately 100-150 mm^3. Mice are treated intravenously (i.v.) with three weekly injections of 4 mg/kg ([…] 12 mg/kg) of DOX or DOX NPs in saline. NPs were prepared as described above using the following stock solutions: 2 mg/ml DOX, 1M CaCl2, 50 μg/ml AlgS. Prior to injection: DOX (0.5 mg/ml), or DOX NPs were diluted 1:1.5 in saline. Tumor progression is monitored twice a week by caliper measurement and calculated using the formula: Volume=(width)^2×length/2. Mice are observed daily, and body weight is detected as possible signs of toxicity. For histological analysis, mice are euthanized at the end of the treatments. Following excision, tumors are weighted, fixed in 4% formaldehyde, embedded in paraffin, and sectioned into 5-μm slices. Tissue samples are analyzed by H&E staining for histopathological changes, Ki67 staining for cell proliferation and TUNEL assay for apoptotic cell death.

Compound	IC50 [1]	IC50 [2]	% positive cells (DOX-positive) ([3]; MDA-MB-231, 4 h)	Mean Fluorescent intensity ([3]; MDA-MB-231, 4 h)	% positive cells (DOX-positive) ([3]; MDA-MB-231, 24 h)	Mean Fluorescent intensity ([3]; MDA-MB-231, 24 h)	% positive cells (DOX-positive) ([4]; 4 h)	Mean Fluorescent intensity ([4]; 4 h)	% positive cells (DOX-positive) ([4]; 4 h, listed as free DOX)	% positive cells (DOX-positive) ([4]; 24 h)	Mean Fluorescent intensity ([4]; 24 h)	tumor size compared to controls [5]
CN(Cc1cnc2nc(N)nc(N)c2n1)c1ccc(C(=O)N[C@@H](CCC(=O)O)C(=O)O)cc1 [MTX, Methotrexate]	0.00696 µg/mL	1.27 µg/mL (≈ 2.79 µM)	–	–	–	–	–	–	–	–	–	–
COc1cccc2c1C(=O)c1c(O)c3c(c(O)c1C2=O)C[C@@](O)(C(=O)CO)C[C@@H]3O[C@H]1C[C@H](N)[C@H](O)[C@H](C)O1.Cl [Free DOX, Doxorubicin-HCl]	–	–	90%	59061	72%	41944	71%	40932	~70%	13%	15108	reduced
